From patent US8415351B2 (priority 2007, dated 2013)

Legend:
[1] = target: T1, HCV polymerase 1A (Δ21 NS5B, H77) (Hepatitis C virus genotype 1a, UniProt P27958); test: biochemical; settings: IC50 1a
T1 construct: 20 to 50 nM Δ21 NS5B
Outline: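 Radiometric assay with Δ21 NS5B (H77): 20 μM CTP, 20 μM ATP, 1 μM ^3H-UTP, 5 nM template RNA, 2–4 h at room temperature. RNA precipitated with spermine, filter-captured and counted. IC50 from non-linear fit of retained cpm vs inhibitor concentration (tight-binding equation).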

[2] = target: T2, HCV polymerase 1B (Δ21 NS5B, BK) (Hepatitis C virus genotype 1b, UniProt P26663); test: biochemical
T2 construct: 20 to 50 nM Δ21 NS5B
T2 sequence (P26663 2420-2989, stated change not applied): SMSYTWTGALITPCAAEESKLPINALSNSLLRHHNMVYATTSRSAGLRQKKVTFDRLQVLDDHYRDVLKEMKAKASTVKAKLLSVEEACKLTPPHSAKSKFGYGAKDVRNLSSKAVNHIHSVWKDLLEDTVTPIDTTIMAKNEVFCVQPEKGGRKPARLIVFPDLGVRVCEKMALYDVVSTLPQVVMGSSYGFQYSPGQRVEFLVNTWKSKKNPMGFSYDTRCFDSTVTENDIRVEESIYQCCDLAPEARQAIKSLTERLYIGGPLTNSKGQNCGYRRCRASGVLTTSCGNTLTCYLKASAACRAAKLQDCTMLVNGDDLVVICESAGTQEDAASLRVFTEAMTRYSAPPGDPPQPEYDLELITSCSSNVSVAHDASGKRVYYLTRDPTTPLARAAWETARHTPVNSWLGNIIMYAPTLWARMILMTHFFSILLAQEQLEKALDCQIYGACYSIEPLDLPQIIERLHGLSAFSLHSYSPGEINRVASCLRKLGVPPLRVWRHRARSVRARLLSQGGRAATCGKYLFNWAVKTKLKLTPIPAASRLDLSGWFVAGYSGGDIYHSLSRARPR
Outline: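 Δ21 NS5B (genotype 1b, BK […]) preincubated 15 min RT with inhibitor, 2 mM MnCl2, pH 7.4, 60–125 μM GTP; started with 20 μM CTP/ATP, 1 μM 3H-UTP, 5 nM template RNA, run 2–4 h RT. Spermine-precipitated RNA filter-captured, scintillation counted; IC50 from tight-binding (Morrison) fit.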

[3] = system: genotype 1a-H77 subgenomic replicon cell line; test: microbe, parasite or virus in culture; assay type: cell-based, HCV; settings: Hepatitis C virus, read-out: EC50 1a
[4] = system: genotype 1b-Con1 subgenomic replicon cell line; test: microbe, parasite or virus in culture; assay type: cell-based, HCV; settings: Hepatitis C virus, read-out: EC50 1b

T1 sequence (P27958 2421-2990, stated change not applied): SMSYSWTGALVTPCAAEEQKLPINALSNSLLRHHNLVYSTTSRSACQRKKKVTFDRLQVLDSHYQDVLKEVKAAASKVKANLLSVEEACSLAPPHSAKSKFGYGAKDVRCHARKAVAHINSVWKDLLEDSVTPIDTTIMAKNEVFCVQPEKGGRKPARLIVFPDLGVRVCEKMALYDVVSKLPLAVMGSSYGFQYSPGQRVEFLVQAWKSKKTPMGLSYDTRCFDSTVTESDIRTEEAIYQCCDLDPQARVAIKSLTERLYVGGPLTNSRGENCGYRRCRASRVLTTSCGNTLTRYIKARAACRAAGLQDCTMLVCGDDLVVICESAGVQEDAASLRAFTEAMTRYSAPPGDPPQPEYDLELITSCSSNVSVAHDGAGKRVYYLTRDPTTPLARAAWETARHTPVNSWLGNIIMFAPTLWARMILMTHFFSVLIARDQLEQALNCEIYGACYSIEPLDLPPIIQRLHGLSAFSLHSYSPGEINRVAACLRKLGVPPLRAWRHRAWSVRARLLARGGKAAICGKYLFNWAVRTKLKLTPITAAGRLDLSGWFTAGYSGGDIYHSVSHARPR

Row | Structure (SMILES) | IC50 [1] [nM] | IC50 [2] [nM] | EC50 [3] [nM] | EC50 [4] [nM]
1 | COc1c(C#Cc2ccc(NS(C)(=O)=O)c(F)c2)cc(N2CCC(=O)NC2=O)cc1C(C)(C)C [IA-L2-1.13, N-(4-((3-tert-butyl-5-(2,4-dioxotetrahydropyrimidin-1(2H)-yl)-2-methoxyphenyl)ethynyl)-2-fluorophenyl)methanesulfonamide] | < 10 | < 10 | 100 to 1000 | 10 to 100
2 | COc1c(-c2ccc3c(c2)CCC3C(=O)NS(C)(=O)=O)cc(-n2ccc(=O)[nH]c2=O)cc1C(C)(C)C (centres unmarked) [IB-L0-2.34, 5-(3-tert-butyl-5-(2,4-dioxo-3,4-dihydropyrimidin-1(2H)-yl)-2-methoxyphenyl)-N-(methylsulfonyl)-2,3-dihydro-1H-indene-1-carboxamide] | 10 to 100 | 10 to 100 | > 1000 | 100 to 1000
3 | COc1c(C(=O)Nc2cccc(CNS(C)(=O)=O)c2)cc(N2CCC(=O)NC2=O)cc1C(C)(C)C [IA-L3-1.120, 3-tert-butyl-5-(2,4-dioxotetrahydropyrimidin-1(2H)-yl)-2-methoxy-N-(3-(methylsulfonamidomethyl)phenyl)benzamide] | 100 to 1000 | 100 to 1000 | > 1000 | > 1000
4 | COc1c(C(=O)Nc2ccc(NS(=O)(=O)c3c(C)noc3C)cc2)cc(N2CCC(=O)NC2=O)cc1C(C)(C)C [IA-L3-1.59, 3-tert-butyl-N-[4-(3,5-dimethyl-isoxazole-4-sulfonylamino)-phenyl]-5-(2,4-dioxo-tetrahydro-pyrimidin-1-yl)-2-methoxy-benzamide] | 100 to 1000 | 10 to 100 | > 1000 | > 1000
5 | COc1c(C(=O)Nc2ccc(NS(C)(=O)=O)c([N+](=O)[O-])c2)cc(N2CCC(=O)NC2=O)cc1C(C)(C)C [IA-L3-1.87, 3-tert-butyl-5-(2,4-dioxotetrahydropyrimidin-1(2H)-yl)-2-methoxy-N-(4-(methylsulfonamido)-3-nitrophenyl)benzamide] | > 1000 | 100 to 1000 |  | > 1000
6 | COc1c(-c2ccc(/C=N/NS(C)(=O)=O)cc2)cc(N2CCC(=O)NC2=O)cc1C(C)(C)C [IA-L0-1.1, (E)-N′-((3′-tert-butyl-5′-(2,4-dioxotetrahydropyrimidin-1(2H)-yl)-2′-methoxybiphenyl-4-yl)methylene)methanesulfonohydrazide] | < 10 | 10 to 100 | 100 to 1000 | < 10
7 | COc1c(C(=O)Nc2ccc(NS(=O)(=O)CCO)cc2)cc(N2CCC(=O)NC2=O)cc1C(C)(C)C [IA-L3-1.122, 3-tert-butyl-5-(2,4-dioxotetrahydropyrimidin-1(2H)-yl)-N-(4-(2-hydroxyethylsulfonamido)phenyl)-2-methoxybenzamide] | 10 to 100 | 10 to 100 |  | 10 to 100
8 | COc1c(C(=O)Nc2ccc(NS(C)(=O)=O)nc2)cc(N2CCC(=O)NC2=O)cc1C(C)(C)C [IA-L3-1.99, 3-tert-butyl-5-(2,4-dioxotetrahydropyrimidin-1(2H)-yl)-2-methoxy-N-(6-(methylsulfonamido)pyridin-3-yl)benzamide] | 10 to 100 | 100 to 1000 |  | 100 to 1000
9 | COC(=O)c1cc(NS(C)(=O)=O)ccc1C#Cc1cc(-n2ccc(=O)[nH]c2=O)cc(C(C)(C)C)c1OC [IB-L2-1.7, methyl 2-((3-tert-butyl-5-(2,4-dioxo-3,4-dihydropyrimidin-1(2H)-yl)-2-methoxyphenyl)-ethynyl)-5-(methylsulfonamido)benzoate] | < 10 | 10 to 100 |  | < 10
10 | COc1c(C#Cc2cnc(NS(C)(=O)=O)cn2)cc(-n2ccc(=O)[nH]c2=O)cc1C(C)(C)C [IB-L2-1.9, N-(5-((3-tert-butyl-5-(2,4-dioxo-3,4-dihydropyrimidin-1(2H)-yl)-2-methoxyphenyl)ethynyl)-pyrazin-2-yl)methanesulfonamide] | 100 to 1000 | 10 to 100 | > 1000 | 
11 | COc1c(C#Cc2cc(F)c(NS(C)(=O)=O)c(F)c2)cc(-n2ccc(=O)[nH]c2=O)cc1C(C)(C)C [IB-L2-1.4, N-(4-((3-tert-butyl-5-(2,4-dioxo-3,4-dihydropyrimidin-1(2H)-yl)-2-methoxyphenyl)ethynyl)-2,6-difluorophenyl)methanesulfonamide] | 10 to 100 | 10 to 100 |  | 100 to 1000
12 | COc1c(C(=O)Nc2ccc(NS(C)(=O)=O)cc2)cc(-n2c(C)cc(=O)[nH]c2=O)cc1C(C)(C)C [IB-L3-1.3, 3-tert-butyl-2-methoxy-5-(6-methyl-2,4-dioxo-3,4-dihydropyrimidin-1(2H)-yl)-N-(4-(methylsulfonamido)phenyl)benzamide] | 100 to 1000 | > 1000 |  | 100 to 1000
13 | COc1c(C#Cc2ccc(NS(C)(=O)=O)cc2Cl)cc(-n2ccc(=O)[nH]c2=O)cc1C(C)(C)C [IB-L2-1.2, N-(4-((3-tert-butyl-5-(2,4-dioxo-3,4-dihydropyrimidin-1(2H)-yl)-2-methoxyphenyl)ethynyl)-3-chlorophenyl)methanesulfonamide] | < 10 | 10 to 100 |  | < 10
14 | COCCS(=O)(=O)Nc1ccc(NC(=O)c2cc(N3CCC(=O)NC3=O)cc(C(C)(C)C)c2OC)cc1 [IA-L3-1.54, 3-tert-butyl-5-(2,4-dioxotetrahydropyrimidin-1(2H)-yl)-2-methoxy-N-(4-(2-methoxyethylsulfonamido)phenyl)benzamide] | 10 to 100 | 100 to 1000 |  | 10 to 100
15 | COc1c(C(=O)Nc2ccc(NS(C)(=O)=O)cc2)cc(N2CCC(=O)NC2=O)cc1C(C)C [IA-L3-1.111, 5-(2,4-dioxotetrahydropyrimidin-1(2H)-yl)-3-isopropyl-2-methoxy-N-(4-(methylsulfonamido)phenyl)benzamide] | 10 to 100 | 100 to 1000 |  | 100 to 1000
16 | COc1c(C#Cc2ccc(NS(C)(=O)=O)cc2C(C)(C)C)cc(-n2ccc(=O)[nH]c2=O)cc1C(C)(C)C [IB-L2-1.10, N-(3-tert-butyl-4-((3-tert-butyl-5-(2,4-dioxo-3,4-dihydropyrimidin-1(2H)-yl)-2-methoxy-phenyl)ethynyl)phenyl)methanesulfonamide] | < 10 | 10 to 100 |  | 10 to 100
17 | COc1c(NC(=O)c2ccc(NS(C)(=O)=O)cc2)cc(N2CCC(=O)NC2=O)cc1C(C)(C)C [IA-L4-1.9, N-(3-tert-butyl-5-(2,4-dioxotetrahydropyrimidin-1(2H)-yl)-2-methoxyphenyl)-4-(methylsulfonamido)benzamide] | 10 to 100 | 10 to 100 |  | 10 to 100
18 | CC(C)(C)c1cc(N2CCC(=O)NC2=O)cc(C(=O)Nc2ccc(NS(=O)(=O)CCN3CCOCC3)cc2)c1O [IA-L3-1.14, 3-tert-butyl-5-(2,4-dioxotetrahydropyrimidin-1(2H)-yl)-2-hydroxy-N-(4-(2-morpholinoethylsulfonamido)phenyl)benzamide] | 10 to 100 | < 10 |  | 100 to 1000
19 | COc1c(C(=O)Nc2ccc(NS(=O)(=O)CCN(CCO)CCO)cc2)cc(N2CCC(=O)NC2=O)cc1C(C)(C)C [IA-L3-1.56, N-(4-(2-(bis(2-hydroxyethyl)amino)ethylsulfonamido)phenyl)-3-tert-butyl-5-(2,4-dioxo-tetrahydropyrimidin-1(2H)-yl)-2-methoxybenzamide] | 100 to 1000 | 100 to 1000 |  | 100 to 1000
